Test results: PMC11725581, “Developing novel Lin28 inhibitors by computer aided drug design” (Cell Death Discovery, 2025)
Entries after “also recorded” stand apart in the source; their conditions may differ.

Legend:
[1] = test system: Lin28b, let-7 target, CSC and NE biomarker genes in DuNE cells; assay: Gene expression (real-time qPCR, immunoblotting) in DuNE cells; format: cell-based; conditions: 72 h
Protocol: Fig. 4 Ln268 strongly blocks cancer cell stemness of t-NEPC cells. A, B DuNE cells were treated with C1632, Ln15, and Ln268 for 72 h. Selected Let-7 targeted genes, stem cell biomarkers and NE biomarkers were measured by real-time qPCR (A). Lin28b and its downstream HMGA2 protein levels were measured by immunoblotting (B). C DuNE spheroids were treated with 0–100 μM of C1632, Ln15, and Ln268 for 0–6 days. Spheroid sizes were measured and plotted. D DuNE cells were used to perform colony formation assays in the presence of C1632, Ln15 and Ln268 for 14 days. The number of colonies formed in each treatment counted and plotted. E DuNE cells under 3D culture conditions were treated with C1632, Ln15, and Ln268 at the indicated concentrations. Cell growth rates were measured by Incucyte. F DuNE cells were treated with 0–20 μM Ln268 for 144 h. FACS measured cell populations at each stage of cell cycling. Three independent biological replicates were performed for all the assays. All results are presented as the mean ± SD.
Total RNA was extracted by TRIZOL reagent (Invitrogen), treated with deoxyribonuclease and reversely transcribed by random hexamers and superscript II (Invitrogen). Real-time qPCR was performed on the ABI PRISM 7900 HT system (Applied Biosystems) using the FastStart Universal SYBR Green Master mix (Roche) following standard protocol as we reported. […]

[2] = test system: Lin28a-positive IGROV-1 cells; assay: Cell proliferation (Incucyte), IGROV-1 cells; format: cell-based
[3] = test system: Lin28b protein expression in DuNE cells; assay: Lin28b protein levels by immunoblotting in DuNE cells; format: cell-based; conditions: 20uM, 72 h
Protocol: We further tested whether the 13 candidate compounds could penetrate the cell membrane, endure cell-mediated metabolism and excretion, and inhibit Lin28 activities inside cancer cells. […] Since let-7 and Lin28b mutually regulate each other’s expression, increased let-7 expression by Lin28 inhibitors would suppress Lin28b protein levels.
Fig. 3 Validate CADD predicted compounds by cell-based assays. A, B DuNE cells were treated with Lin28b inhibitors for 72 h. Let-7d RNA levels were measured by real-time qPCR (A) and Lin28b protein levels were measured by immunoblotting (B). […] Cell proliferation rates were measured by Incucyte. D Overlay of 1H-15N HSQC spectra for Lin28b-ZKD (black), Lin28b-ZKD + Ln15 (orange), and Lin28b-ZKD + Ln268 (blue). Ligands were added in a 20:1 molar ratio. Approximately 20 residues are seen to shift (from black to orange/blue), with ca. 5 resonances disappearing for Lin28b-ZKD in the presence of Ln268. E Overlay of the 20 NMR models for 2CQF (gray) and 2LI8 (blue) showing the rearrangement of residues 137–160 in going from Lin28b-ZKD alone to the conformation with RNA present. The conformation of Lin28b-ZKD in the presence of the ligands described herein might resemble that of 2LI8, but with a larger conformational spread. All results are presented as the mean ± SD.
Total RNA was extracted by TRIZOL reagent (Invitrogen), treated with deoxyribonuclease and reversely transcribed by random hexamers and superscript II (Invitrogen). Real-time qPCR was performed on the ABI PRISM 7900 HT system (Applied Biosystems) using the FastStart Universal SYBR Green Master mix (Roche) following standard protocol as we reported. All real-time qPCR assays were carried out in triplicates from three independent cDNA syntheses. For immunoblotting assays, whole cell lysis was extracted by a buffer containing 50mM of Tris pH8.0, 150mM of NaCl, 1% NP40, 0.5% sodium deoxycholate, 0.1% SDS and proteinase and phosphatase inhibitors (Roche). Protein lysis separated by SDS-PAGE, transferred to polyvinylidene difluoride membrane, and blotted by specific antibodies.

Lin28b ZKD = molecular target: T1, Lin28b ZKD (Homo sapiens, UniProt Q6ZN17); assay: 1H-15N HSQC NMR of Lin28b-ZKD with ligand; format: binding; conditions: ligand added in 20:1 molar ratio
T1 sequence (Q6ZN17 127-166 limits assumed): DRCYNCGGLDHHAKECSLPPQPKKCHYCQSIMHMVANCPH
Text: Given that Ln268 is derived from the parent compound Ln15, we wanted to assess whether the improved properties of Ln268 were linked to a potential difference in its interaction with Lin28 ZKD. To this end, we collected ^1H-^15N HSQC spectra of Lin28b-ZKD, Lin28b-ZKD + Ln15, and Lin28b-ZKD + Ln268. RNA binding proteins (RBPs) commonly have binding pockets that are intrinsically disordered, as evidenced by the narrow chemical shift dispersion observed in the HQSC of Lin28b-ZKD alone (Fig. 3D). Addition of either Ln15 or Ln268 led to changes in the chemical shifts of ca. 20 residues, consistent with the change in conformation of the Lin28b-ZKD segment which encompasses residues 137–160 (three of which are prolines) upon RNA binding (Fig. 3E). Although many of the peak shifts are the same for the Ln15 and Ln268 containing samples, there are around 7 resonances where the peaks disappear in the case of Ln268.
NMR spectra were recorded at 5 °C on a Bruker Avance III 850 MHz spectrometer, equipped with a TCI cryoprobe. ^1H-^15N HSQC experiments were recorded on ^13C/^15N-labeled Lin28b ZKD (230 μM), in 20 mM d-Tris-HCl (pH 7.5), 100 mM NaCl, 1 mM d-DTT, 0.02% NaN3, 0.25 mM ZnCl2 + 1 mM IDA, and 10% D2O, to which unlabeled Ln15 and Ln268 was added, respectively. The time domain matrix was 4k by 512. Four scans were acquired per t1 increment. Spectra were processed and plotted using Topspin to a final size of 8k by 1k. For the overlays, the levels were set to the same base level in all cases, with a multiplication factor of 1.1.

Du145 spheroids = assay: Du145 spheroid growth; format: cell-based; conditions: 0-192 h
Text: (§1) To further evaluate whether the suppressive effects of Ln268 are specific to Lin28-positive cancer cells, we compared cell growth rates of DuNE (Lin28b-positive line) and Du145 (Lin28b-negative line), both of which are Lin28a-negative. DuNE has the same genomic background with Du145 except for the transduction of the SRRM4 gene. […] Furthermore, Ln268 had no impact on the cell growth of DuNE(KO) cells, in which the Lin28b gene was knocked out by CRISPR (Fig. 5C). […] We also tested several ovarian and endometrial cancer cell lines with different Lin28a and Lin28b expression profiles (Fig. 5E).
For a spheroid generation, 1000 cells/well were seeded in 96-well ULA round-bottomed plates (Corning, Amsterdam) using a multichannel pipette. 3D multicellular spheroids were spontaneously generated after 24 h culture. Plates were incubated for 6 days at 37 °C, 5% CO2, and 95% humidity. DuNE and Du145 cells were cultured in DMEM with 10% FBS. Fully automated image analysis of tumor spheroids was carried out with the Incucyte® S3 Live-Cell Analysis System. The size and shape of multicellular spheroids were analyzed by using the Incucyte® Spheroid Analysis Software Module.

Kuramochi cells = assay: Cell proliferation (Incucyte), Kuramochi; format: cell-based; conditions: Lin28a/Lin28b-positive
Text: as §1

`O=c1[nH]c(Nc2ccc(F)cc2O)cs1` [Ln268] was tested, and the “effect on Lin28b mRNA and protein levels” value [1] was “potently inhibited Lin28b at both mRNA and protein levels”, the “inhibition of Oct4, Nanog and ID4 expression relative to C1632” value ([1]; qPCR) was “stronger inhibitory effects than C1632” and the “cell proliferation, IGROV-1” value [2] was “strongly inhibited cell proliferation; also recorded: strong suppressive effects”. For the same compound, the “effect on Lin28b protein expression” value [3] was “suppressed Lin28b protein expression”, the “residues of Lin28b-ZKD with changed chemical shifts (1H-15N HSQC)” value (Lin28b ZKD) was “ca. 20 residues” and the “resonances of Lin28b-ZKD whose peaks disappear (1H-15N HSQC)” value (Lin28b ZKD) was “around 7 resonances”. For the same compound, the “effect on Du145 spheroids” value (Du145 spheroids) was “no effect” and the “effect on growth of Kuramochi cells” value (Kuramochi cells) was “suppressed the growth”.
